Measurements reported in patent US20080114007A1 (priority 2006, published 2008).

These compounds were tested against CSF-1R (Homo sapiens, UniProt P07333) (assay: Peptide (non-phosphorylated) assay, fluorescence polarization competition immunoassay). Details: 0.7 nM CSF-1R, 308 μM SYEGNSYTFIDPTQ peptide, 1 mM ATP, 80 min; mean of at least three determinations; read-out: c-fms Peptide IC50.
Assay type: biochemical
Protocol: The kinase reaction was initiated by adding 1 μL of 10 mM ATP in assay buffer. […] Positive and negative control wells were included on each plate, where 4% DMSO in assay buffer was substituted for the compound; in addition, positive control wells received 1.2 μL of 50 mM EDTA before the start of the reaction.
The plates were covered and incubated at room temperature for 80 min. Reactions were stopped by addition of 1.2 μL of 50 mM EDTA. Each well then received 10 μL of a 1:1:3 mixture of 10× anti-phosphotyrosine antibody, 10×PTK green tracer, and FP dilution buffer, respectively (Cat. # P2837, Invitrogen, Carlsbad, Calif.). The plates were covered, incubated for 30 min at room temperature, and the fluorescence polarization was read on an Analyst plate reader (Molecular Devices).

Sequence of CSF-1R (P07333 20-972): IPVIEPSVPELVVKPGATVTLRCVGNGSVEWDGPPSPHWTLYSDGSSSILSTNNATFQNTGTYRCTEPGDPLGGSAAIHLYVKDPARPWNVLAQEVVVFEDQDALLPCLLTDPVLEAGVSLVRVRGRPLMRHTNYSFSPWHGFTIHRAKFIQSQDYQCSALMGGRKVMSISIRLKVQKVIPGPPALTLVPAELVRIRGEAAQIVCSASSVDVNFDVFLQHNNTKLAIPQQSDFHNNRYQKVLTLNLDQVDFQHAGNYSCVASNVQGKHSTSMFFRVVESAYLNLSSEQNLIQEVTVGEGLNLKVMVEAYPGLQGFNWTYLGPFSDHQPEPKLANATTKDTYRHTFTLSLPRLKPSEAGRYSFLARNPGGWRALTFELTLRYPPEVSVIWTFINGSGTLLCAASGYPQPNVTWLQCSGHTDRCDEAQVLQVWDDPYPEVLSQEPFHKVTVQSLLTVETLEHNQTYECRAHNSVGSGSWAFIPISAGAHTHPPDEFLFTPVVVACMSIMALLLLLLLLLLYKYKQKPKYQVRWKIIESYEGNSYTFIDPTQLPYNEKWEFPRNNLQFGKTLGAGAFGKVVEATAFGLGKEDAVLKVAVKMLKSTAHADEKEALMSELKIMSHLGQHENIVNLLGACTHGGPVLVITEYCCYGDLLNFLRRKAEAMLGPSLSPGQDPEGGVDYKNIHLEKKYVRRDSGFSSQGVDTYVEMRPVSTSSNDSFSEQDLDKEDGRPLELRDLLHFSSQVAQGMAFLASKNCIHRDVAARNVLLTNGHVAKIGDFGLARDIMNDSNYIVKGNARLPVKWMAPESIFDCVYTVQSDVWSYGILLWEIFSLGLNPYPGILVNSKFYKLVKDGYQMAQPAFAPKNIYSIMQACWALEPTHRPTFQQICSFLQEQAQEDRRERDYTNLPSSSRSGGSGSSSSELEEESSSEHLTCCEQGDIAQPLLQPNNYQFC

With CCONC(=O)c1cn(-c2ccc3c(c2)CCC3)c2nc(Nc3ccc(C4CCN(C)CC4)cc3)ncc2c1=O [Cpd 139, 8-indan-5-yl-2-[4-(1-methyl-piperidin-4-yl)-phenylamino]-5-oxo-5,8-dihydro-pyrido[2,3-d]pyrimidine-6-carboxylic acid ethoxy-amide] as the compound, how does the IC50 read?
Its IC50 is 1 nM.

With CONC(=O)c1cn(-c2ccc3c(c2)CCC3)c2nc(Nc3ccc4[nH]ccc4c3)ncc2c1=O [Cpd 287, 8-indan-5-yl-2-(1H-indol-5-ylamino)-5-oxo-5,8-dihydro-pyrido[2,3-d]pyrimidine-6-carboxylic acid methoxy-amide] as the compound, how does the IC50 read?
The IC50 was 0.9 nM.

For CCc1ccc(-n2cc(C(=O)NOC)c(=O)c3cnc(Nc4ccc(OCCCOC)c(OCCCOC)c4)nc32)cc1 [Cpd 323, 2-[3,4-bis-(3-methoxy-propoxy)-phenylamino]-8-(4-ethyl-phenyl)-5-oxo-5,8-dihydro-pyrido[2,3-d]pyrimidine-6-carboxylic acid methoxy-amide], which IC50 is on record?
Its IC50 is 1 nM.

Which IC50 does the source give for CONC(=O)c1cn(-c2ccc3c(c2)CCC3)c2nc(Nc3ccc(CCc4n[nH]c(C)n4)cc3)ncc2c1=O [Cpd 172, 8-indan-5-yl-2-{4-[2-(5-methyl-1H-[1,2,4]triazol-3-yl)-ethyl]-phenylamino}-5-oxo-5,8-dihydro-pyrido[2,3-d]pyrimidine-6-carboxylic acid methoxy-amide] here?
The IC50 was 2.3 nM.

How did the IC50 turn out when CONC(=O)c1cn(-c2ccc3c(c2)CCC3)c2nc(Nc3cccc(CCN4CCS(=O)(=O)CC4)c3)ncc2c1=O [Cpd 205, 2-{3-[2-(1,1-dioxo-1λ^6-thiomorpholin-4-yl)-ethyl]-phenylamino}-8-indan-5-yl-5-oxo-5,8-dihydro-pyrido[2,3-d]pyrimidine-6-carboxylic acid methoxy-amide] was run?
Its IC50 is 1 nM.

Which IC50 does the source give for CONC(=O)c1cn(-c2ccc(OC(F)(F)F)cc2)c2nc(Nc3ccc(CCN4CCN(C)CC4)cc3)ncc2c1=O [Cpd 175, 2-{4-[2-(4-methylpiperazin-1-yl)-ethyl]-phenylamino}-5-oxo-8-(4-trifluoromethoxy-phenyl)-5,8-dihydropyrido[2,3-d]pyrimidine-6-carboxylic acid methoxy-amide] here?
Its IC50 is 1 nM.

CCc1ccc(-n2cc(C(=O)NOC)c(=O)c3cnc(Nc4ccc5cc[nH]c5c4)nc32)cc1 [Cpd 286, 8-(4-ethyl-phenyl)-2-(1H-indol-6-ylamino)-5-oxo-5,8-dihydro-pyrido[2,3-d]pyrimidine-6-carboxylic acid methoxy-amide] was tested. Which IC50 did it give?
Its IC50 is 1.3 nM.

Which IC50 does the source give for CONC(=O)c1cn(-c2ccc3c(c2)CCC3)c2nc(Nc3ccc(CCN4CCC5(CC4)OCCCO5)cc3)ncc2c1=O [Cpd 73, 2-{4-[2-(1,5-dioxa-9-aza-spiro[5.5]undec-9-yl)-ethyl]-phenylamino}-8-indan-5-yl-5-oxo-5,8-dihydro-pyrido[2,3-d]pyrimidine-6-carboxylic acid methoxy-amide] here?
Its IC50 is 0.84 nM.

O=C(NCCO)c1cn(-c2ccc3c(c2)CCC3)c2nc(Nc3cccc(N4CCNCC4)c3)ncc2c1=O [Cpd 66, 8-indan-5-yl-5-oxo-2-(3-piperazin-1-yl-phenylamino)-5,8-dihydro-pyrido[2,3-d]pyrimidine-6-carboxylic acid (2-hydroxy-ethyl)-amide] was tested. Which IC50 did it give?
Its IC50 is 2.5 nM.

For CCONC(=O)c1cn(C2CCCC2)c2nc(Nc3ccc(C4CCN(C(C)=O)CC4)cc3)ncc2c1=O [Cpd 47, 2-[4-(1-acetyl-piperidin-4-yl)-phenylamino]-8-cyclopentyl-5-oxo-5,8-dihydro-pyrido[2,3-d]pyrimidine-6-carboxylic acid ethoxy-amide], which IC50 is on record?
Its IC50 is 1.9 nM.

With CONC(=O)c1cn(-c2ccc3c(c2)CCC3)c2nc(Nc3ccc(CCN4CC(F)C4)cc3)ncc2c1=O [Cpd 266, 2-{4-[2-(3-fluoro-azetidin-1-yl)-ethyl]-phenylamino}-8-indan-5-yl-5-oxo-5,8-dihydro-pyrido[2,3-d]pyrimidine-6-carboxylic acid methoxy-amide] as the compound, how does the IC50 read?
The IC50 was 0.62 nM.

NC(=O)c1cn(-c2ccc3c(c2)CCC3)c2nc(Nc3ccc(CN4CCCC4=O)cc3)ncc2c1=O [Cpd 8, 8-indan-5-yl-5-oxo-2-[4-(2-oxo-pyrrolidin-1-ylmethyl)-phenylamino]-5,8-dihydro-pyrido[2,3-d]pyrimidine-6-carboxylic acid amide] was tested. Which IC50 did it give?
Its IC50 is 1.6 nM.

CONC(=O)c1cn(-c2ccc3c(c2)CCC3)c2nc(Nc3ccc(CCN(CCO)CCO)cc3)ncc2c1=O [Cpd 100, 2-(4-{2-[bis-(2-hydroxy-ethyl)-amino]-ethyl}-phenylamino)-8-indan-5-yl-5-oxo-5,8-dihydro-pyrido[2,3-d]pyrimidine-6-carboxylic acid methoxy-amide] was tested. Which IC50 did it give?
The IC50 was 0.64 nM.

Which IC50 does the source give for CCc1ccc(-n2cc(C(=O)NOC)c(=O)c3cnc(Nc4ccc5cn[nH]c5c4)nc32)cc1 [Cpd 288, 8-(4-ethyl-phenyl)-2-(1H-indazol-6-ylamino)-5-oxo-5,8-dihydro-pyrido[2,3-d]pyrimidine-6-carboxylic acid methoxy-amide] here?
The IC50 was 1.5 nM.

With CONC(=O)c1cn(-c2ccc3c(c2)CCC3)c2nc(Nc3ccc(CCN4CCC[C@@H](O)C4)cc3)ncc2c1=O [Cpd 239, 2-{4-{2-[(3R)-(3-hydroxy-piperidin-1-yl)]-ethyl}-phenylamino}-8-indan-5-yl-5-oxo-5,8-dihydro-pyrido[2,3-d]pyrimidine-6-carboxylic acid methoxy-amide] as the compound, how does the IC50 read?
The IC50 was 0.32 nM.

Which IC50 does the source give for CONC(=O)c1cn(-c2ccc3c(c2)CCC3)c2nc(Nc3ccc(C4CCCCN4C)cc3)ncc2c1=O (stereo not drawn) [Cpd 243, 8-indan-5-yl-2-[4-(1-methyl-piperidin-2-yl)-phenylamino]-5-oxo-5,8-dihydro-pyrido[2,3-d]pyrimidine-6-carboxylic acid methoxy-amide] here?
Its IC50 is 0.52 nM.

With CCc1ccc(-n2cc(C(=O)NOC)c(=O)c3cnc(Nc4ccc(C5CCN(CCS(C)(=O)=O)CC5)cc4)nc32)cc1 [Cpd 96, 8-(4-ethyl-phenyl)-2-{4-[1-(2-methanesulfonyl-ethyl)-piperidin-4-yl]-phenylamino}-5-oxo-5,8-dihydro-pyrido[2,3-d]pyrimidine-6-carboxylic acid methoxy-amide] as the compound, how does the IC50 read?
Its IC50 is 0.9 nM.

How did the IC50 turn out when CONC(=O)c1cn(-c2ccc3c(c2)CCC3)c2nc(Nc3cccc(N4CCN(C(C)=O)CC4)c3)ncc2c1=O [Cpd 196, 2-[3-(4-acetyl-piperazin-1-yl)-phenylamino]-8-indan-5-yl-5-oxo-5,8-dihydro pyrido[2,3-d]pyrimidine-6-carboxylic acid methoxy-amide] was run?
Its IC50 is 1.7 nM.

With CCc1ccc(-n2cc(C(=O)NOC)c(=O)c3cnc(Nc4ccc5c(c4)N(C(C)=O)CC5)nc32)cc1 [Cpd 281, 2-(1-acetyl-2,3-dihydro-1H-indol-6-ylamino)-8-(4-ethyl-phenyl)-5-oxo-5,8-dihydro-pyrido[2,3-d]pyrimidine-6-carboxylic acid methoxy-amide] as the compound, how does the IC50 read?
The IC50 was 1.5 nM.

For CONC(=O)c1cn(C2CCCC2)c2nc(Nc3ccc(CCN4CCCC4=O)cc3)ncc2c1=O [Cpd 38, 8-cyclopentyl-5-oxo-2-{4-[2-(2-oxo-pyrrolidin-1-yl)-ethyl]-phenylamino}-5,8-dihydro-pyrido[2,3-d]pyrimidine-6-carboxylic acid methoxy-amide], which IC50 is on record?
The IC50 was 2 nM.

For CCc1ccc(-n2cc(C(=O)NOC)c(=O)c3cnc(Nc4ccc(C5CCN(CC(F)(F)F)CC5)cc4)nc32)cc1 [Cpd 188, 8-(4-ethyl-phenyl)-5-oxo-2-{4-[1-(2,2,2-trifluoro-ethyl)-piperidin-4-yl]-phenylamino}-5,8-dihydro-pyrido[2,3-d]pyrimidine-6-carboxylic acid methoxy-amide], which IC50 is on record?
The IC50 was 4.1 nM.

With NC(=O)c1cn(-c2ccc3c(c2)CCC3)c2nc(Nc3ccc(N4CCC[C@H]4CO)cc3)ncc2c1=O [Cpd 6, (S)-2-[4-(2-hydroxymethyl-pyrrolidin-1-yl)-phenylamino]-8-indan-5-yl-5-oxo-5,8-dihydro-pyrido[2,3-d]pyrimidine-6-carboxylic acid amide] as the compound, how does the IC50 read?
Its IC50 is 3.1 nM.

CCc1ccc(-n2cc(C(=O)NOC)c(=O)c3cnc(Nc4ccccc4)nc32)cc1 [Cpd 316, 8-(4-ethyl-phenyl)-5-oxo-2-phenylamino-5,8-dihydro-pyrido[2,3-d]pyrimidine-6-carboxylic acid methoxy-amide] was tested. Which IC50 did it give?
The IC50 was 1.8 nM.

For CONC(=O)c1cn(-c2ccc(OC(F)(F)F)cc2)c2nc(Nc3ccc(C4CCN(C)CC4)cc3)ncc2c1=O [Cpd 159, 2-[4-(1-methylpiperidin-4-yl)-phenylamino]-5-oxo-8-(4-trifluoromethoxyphenyl)-5,8-dihydropyrido[2,3-d]pyrimidine-6-carboxylic acid methoxy-amide], which IC50 is on record?
The IC50 was 0.66 nM.

With CCONC(=O)c1cn(-c2ccc(CC)cc2)c2nc(Nc3ccc(C4CCN(CCO)CC4)cc3)ncc2c1=O [Cpd 183, 8-(4-ethyl-phenyl)-2-{4-[1-(2-hydroxy-ethyl)-piperidin-4-yl]-phenylamino}-5-oxo-5,8-dihydro-pyrido[2,3-d]pyrimidine-6-carboxylic acid ethoxy-amide] as the compound, how does the IC50 read?
The IC50 was 0.4 nM.

Same assay, conditions: c-fms Peptide IC50, 0.7 nM CSF-1R, 308 μM SYEGNSYTFIDPTQ peptide, 1 mM ATP, 80 min; mean of at least three determinations

With CCc1ccc(-n2cc(C(=O)NOC)c(=O)c3cnc(Nc4ccc(C5CCN(C)CC5)cc4)nc32)cc1 [Cpd 156, 8-(4-ethyl-phenyl)-2-[4-(1-methyl-piperidin-4-yl)-phenylamino]-5-oxo-5,8-dihydro-pyrido[2,3-d]pyrimidine-6-carboxylic acid methoxy-amide] as the compound, how does the IC50 read?
The IC50 was 0.3 nM.

CONC(=O)c1cn(-c2ccc3c(c2)CCC3)c2nc(Nc3ccc(CCS(=O)(=O)NC(C)=O)cc3)ncc2c1=O [Cpd 90, 2-[4-(2-acetylsulfamoyl-ethyl)-phenylamino]-8-indan-5-yl-5-oxo-5,8-dihydro-pyrido[2,3-d]pyrimidine-6-carboxylic acid methoxy-amide] was tested. Which IC50 did it give?
The IC50 was 2.4 nM.
